Measured values taken from ChEMBL document CHEMBL3885861, “Open TG-GATES”.

Species on record: Rattus norvegicus
Assay: Open TG-GATES - Regimen: Single
Type: toxicity, organism-based, Sprague-Dawley
Design: regimen Single, gender Male, age 6 weeks
Settings: in vivo, po, route gavage; for APTT / Bas / Eos / Fbg / Hb / Ht / Lym / MCH / MCHC / MCV / Mono / Neu / PT / Plat / RBC / Ret / WBC: tissue Blood; for KIDNEY_L / KIDNEY_R / KIDNEY_TOTAL: tissue Kidney; for LIVER: tissue Liver; for A/G / ALP / ALT / AST / BUN / CRE / Ca / Cl / DBIL / GLC / IP / K / LDH / Na / PL / RALB / TBIL / TC / TG / TP / gamma-GTP: tissue Plasma
[1] = 0 mg/kg, 3 h, dose level Control
[2] = 0 mg/kg, 6 h, dose level Control
[3] = 0 mg/kg, 9 h, dose level Control
[4] = 0 mg/kg, 24 h, dose level Control

## O=c1ccc2ccccc2o1 [COUMARIN]
[1]
  TERMINAL_BW: 182.8 g
  APTT: 16.6 s
  Bas: 0%
  Eos: 0.6%
  Fbg: 205.4 mg/dL
  Hb: 13.5 g/dL
  Ht: 40%
  Lym: 83.8%
  MCH: 22.1 pg
  MCHC: 33.6%
  MCV: 65.8 fL
  Mono: 4.8%
  Neu: 11%
  PT: 12.3 s
  Plat: 106.1 x10_4/uL
  RBC: 608.6 x10_4/ul
  Ret: 8.9%
  WBC: 102.6 x10_2/uL
  KIDNEY_L: 0.8 g
  KIDNEY_R: 0.8 g
  KIDNEY_TOTAL: 1.7 g
  LIVER: 8.4 g
  A/G: 2.1
  ALP: 1014.2 IU/L
  ALT: 43 IU/L
  AST: 69.4 IU/L
  BUN: 11.2 mg/dL
  CRE: 0.5 mg/dL
  Ca: 10.9 mg/dL
  Cl: 104.8 meq/L
  DBIL: 0.026 mg/dL
  GLC: 189.4 mg/dL
  IP: 10.7 mg/dL
  K: 4.7 meq/L
  LDH: 76.6 IU/L
  Na: 138.6 meq/L
  PL: 158.2 mg/dL
  RALB: 4 g/dL
  TBIL: 0.3 mg/dL
  TC: 81.4 mg/dL
  TG: 99.4 mg/dL
  TP: 5.8 g/dL
  gamma-GTP: 1.6 IU/L
[2]
  TERMINAL_BW: 179.5 g
  APTT: 16.3 s
  Bas: 0%
  Eos: 0.8%
  Fbg: 205.8 mg/dL
  Hb: 13.5 g/dL
  Ht: 40.4%
  Lym: 75.4%
  MCH: 21.8 pg
  MCHC: 33.4%
  MCV: 65.4 fL
  Mono: 7.8%
  Neu: 16.6%
  PT: 12.4 s
  Plat: 108.2 x10_4/uL
  RBC: 617.2 x10_4/ul
  Ret: 9.3%
  WBC: 115.3 x10_2/uL
  KIDNEY_L: 0.8 g
  KIDNEY_R: 0.9 g
  KIDNEY_TOTAL: 1.7 g
  LIVER: 7.7 g
  A/G: 2.1
  ALP: 982 IU/L
  ALT: 36.4 IU/L
  AST: 66.6 IU/L
  BUN: 11.4 mg/dL
  CRE: 0.5 mg/dL
  Ca: 10.4 mg/dL
  Cl: 107.8 meq/L
  DBIL: 0.002 mg/dL
  GLC: 184.6 mg/dL
  IP: 11.3 mg/dL
  K: 5.4 meq/L
  LDH: 96.8 IU/L
  Na: 139.4 meq/L
  PL: 144.4 mg/dL
  RALB: 3.8 g/dL
  TBIL: 0.3 mg/dL
  TC: 82 mg/dL
  TG: 52.2 mg/dL
  TP: 5.6 g/dL
  gamma-GTP: 1.4 IU/L
[3]
  TERMINAL_BW: 180 g
  APTT: 16 s
  Bas: 0%
  Eos: 0.8%
  Fbg: 206.8 mg/dL
  Hb: 13.1 g/dL
  Ht: 39.4%
  Lym: 79.2%
  MCH: 21.9 pg
  MCHC: 33.3%
  MCV: 65.9 fL
  Mono: 6.4%
  Neu: 14%
  PT: 12.4 s
  Plat: 117.4 x10_4/uL
  RBC: 598.6 x10_4/ul
  Ret: 9.2%
  WBC: 106.8 x10_2/uL
  KIDNEY_L: 0.9 g
  KIDNEY_R: 0.9 g
  KIDNEY_TOTAL: 1.7 g
  LIVER: 7.4 g
  A/G: 2.1
  ALP: 975.8 IU/L
  ALT: 31.2 IU/L
  AST: 59.4 IU/L
  BUN: 12.4 mg/dL
  CRE: 0.5 mg/dL
  Ca: 10.7 mg/dL
  Cl: 106 meq/L
  DBIL: 0.022 mg/dL
  GLC: 190.8 mg/dL
  IP: 11 mg/dL
  K: 5.1 meq/L
  LDH: 82.2 IU/L
  Na: 138.2 meq/L
  PL: 139 mg/dL
  RALB: 3.7 g/dL
  TBIL: 0.3 mg/dL
  TC: 79.4 mg/dL
  TG: 36.6 mg/dL
  TP: 5.5 g/dL
  gamma-GTP: 1.6 IU/L
[4]
  TERMINAL_BW: 191.8 g
  APTT: 16.1 s
  Bas: 0%
  Eos: 0.8%
  Fbg: 205.4 mg/dL
  Hb: 13.2 g/dL
  Ht: 39.3%
  Lym: 77.2%
  MCH: 21.8 pg
  MCHC: 33.4%
  MCV: 65.1 fL
  Mono: 8.8%
  Neu: 13.6%
  PT: 12.5 s
  Plat: 106.5 x10_4/uL
  RBC: 604.2 x10_4/ul
  Ret: 8.3%
  WBC: 132 x10_2/uL
  KIDNEY_L: 0.9 g
  KIDNEY_R: 0.9 g
  KIDNEY_TOTAL: 1.8 g
  LIVER: 9 g
  A/G: 1.9
  ALP: 985.2 IU/L
  ALT: 37 IU/L
  AST: 64.4 IU/L
  BUN: 16.2 mg/dL
  CRE: 0.5 mg/dL
  Ca: 10.8 mg/dL
  Cl: 105.4 meq/L
  DBIL: 0 mg/dL
  GLC: 184.4 mg/dL
  IP: 7.9 mg/dL
  K: 5.5 meq/L
  LDH: 92.6 IU/L
  Na: 137.8 meq/L
  PL: 138 mg/dL
  RALB: 3.7 g/dL
  TBIL: 0.3 mg/dL
  TC: 76 mg/dL
  TG: 82.8 mg/dL
  TP: 5.6 g/dL
  gamma-GTP: 1.2 IU/L
15 mg/kg, 3 h, dose level Low
  TERMINAL_BW: 178.4 g
  APTT: 16.5 s
  Bas: 0%
  Eos: 1%
  Fbg: 205.2 mg/dL
  Hb: 13.6 g/dL
  Ht: 40.8%
  Lym: 82.2%
  MCH: 21.3 pg
  MCHC: 33.4%
  MCV: 63.7 fL
  Mono: 3.8%
  Neu: 13.4%
  PT: 12.4 s
  Plat: 97.1 x10_4/uL
  RBC: 640 x10_4/ul
  Ret: 8.2%
  WBC: 97 x10_2/uL
  KIDNEY_L: 0.8 g
  KIDNEY_R: 0.8 g
  KIDNEY_TOTAL: 1.7 g
  LIVER: 8 g
  A/G: 2
  ALP: 1069.4 IU/L
  ALT: 41.6 IU/L
  AST: 71.8 IU/L
  BUN: 10.2 mg/dL
  CRE: 0.4 mg/dL
  Ca: 10.6 mg/dL
  Cl: 105.6 meq/L
  DBIL: 0.006 mg/dL
  GLC: 182.4 mg/dL
  IP: 10.4 mg/dL
  K: 4.7 meq/L
  LDH: 84.8 IU/L
  Na: 138 meq/L
  PL: 161.6 mg/dL
  RALB: 3.9 g/dL
  TBIL: 0.4 mg/dL
  TC: 86 mg/dL
  TG: 115 mg/dL
  TP: 5.9 g/dL
  gamma-GTP: 1.4 IU/L
15 mg/kg, 6 h, dose level Low
  TERMINAL_BW: 180.2 g
  APTT: 16.4 s
  Bas: 0%
  Eos: 1.2%
  Fbg: 189.2 mg/dL
  Hb: 13.5 g/dL
  Ht: 40.5%
  Lym: 76%
  MCH: 21.9 pg
  MCHC: 33.2%
  MCV: 65.9 fL
  Mono: 5%
  Neu: 18.4%
  PT: 12.5 s
  Plat: 109.6 x10_4/uL
  RBC: 614.6 x10_4/ul
  Ret: 9.4%
  WBC: 95.4 x10_2/uL
  KIDNEY_L: 0.8 g
  KIDNEY_R: 0.8 g
  KIDNEY_TOTAL: 1.7 g
  LIVER: 8 g
  A/G: 2.1
  ALP: 872 IU/L
  ALT: 33.6 IU/L
  AST: 65 IU/L
  BUN: 9 mg/dL
  CRE: 0.4 mg/dL
  Ca: 10.3 mg/dL
  Cl: 107.2 meq/L
  DBIL: 0.004 mg/dL
  GLC: 189.6 mg/dL
  IP: 10.4 mg/dL
  K: 5.2 meq/L
  LDH: 88 IU/L
  Na: 138 meq/L
  PL: 136 mg/dL
  RALB: 3.7 g/dL
  TBIL: 0.3 mg/dL
  TC: 75.2 mg/dL
  TG: 63 mg/dL
  TP: 5.5 g/dL
  gamma-GTP: 1.2 IU/L
15 mg/kg, 9 h, dose level Low
  TERMINAL_BW: 177.8 g
  APTT: 16.1 s
  Bas: 0%
  Eos: 0.8%
  Fbg: 198.2 mg/dL
  Hb: 13.2 g/dL
  Ht: 40.1%
  Lym: 78.2%
  MCH: 22 pg
  MCHC: 33%
  MCV: 66.6 fL
  Mono: 6.4%
  Neu: 14.6%
  PT: 12.3 s
  Plat: 103 x10_4/uL
  RBC: 602 x10_4/ul
  Ret: 8.7%
  WBC: 85.8 x10_2/uL
  KIDNEY_L: 0.8 g
  KIDNEY_R: 0.9 g
  KIDNEY_TOTAL: 1.7 g
  LIVER: 7.2 g
  A/G: 2.3
  ALP: 849 IU/L
  ALT: 30.6 IU/L
  AST: 62 IU/L
  BUN: 9.8 mg/dL
  CRE: 0.5 mg/dL
  Ca: 10.6 mg/dL
  Cl: 106.8 meq/L
  DBIL: 0.03 mg/dL
  GLC: 195 mg/dL
  IP: 11.6 mg/dL
  K: 5.1 meq/L
  LDH: 102 IU/L
  Na: 139.4 meq/L
  PL: 141 mg/dL
  RALB: 3.8 g/dL
  TBIL: 0.3 mg/dL
  TC: 81.4 mg/dL
  TG: 37.4 mg/dL
  TP: 5.5 g/dL
  gamma-GTP: 1.2 IU/L
15 mg/kg, 24 h, dose level Low
  TERMINAL_BW: 189.8 g
  APTT: 15.7 s
  Bas: 0%
  Eos: 1%
  Fbg: 208.2 mg/dL
  Hb: 13.2 g/dL
  Ht: 39.7%
  Lym: 74.2%
  MCH: 22.3 pg
  MCHC: 33.3%
  MCV: 66.9 fL
  Mono: 10.6%
  Neu: 14.2%
  PT: 12.2 s
  Plat: 102.6 x10_4/uL
  RBC: 594.2 x10_4/ul
  Ret: 8.2%
  WBC: 102.3 x10_2/uL
  KIDNEY_L: 0.9 g
  KIDNEY_R: 0.9 g
  KIDNEY_TOTAL: 1.8 g
  LIVER: 9.3 g
  A/G: 2.1
  ALP: 972.2 IU/L
  ALT: 43 IU/L
  AST: 68.2 IU/L
  BUN: 14 mg/dL
  CRE: 0.5 mg/dL
  Ca: 10.9 mg/dL
  Cl: 106.2 meq/L
  DBIL: 0.01 mg/dL
  GLC: 190.8 mg/dL
  IP: 8.4 mg/dL
  K: 5.2 meq/L
  LDH: 97.4 IU/L
  Na: 137.8 meq/L
  PL: 140.4 mg/dL
  RALB: 3.8 g/dL
  TBIL: 0.3 mg/dL
  TC: 76.8 mg/dL
  TG: 77.2 mg/dL
  TP: 5.7 g/dL
  gamma-GTP: 1 IU/L
